Source: the supplement of paper PMC12317010

Test: collision cross section in nitrogen (drift tube, single-field); higher = larger gas-phase ion size
[1] = ion type: [M+H], ion source: APCI, ion mode: Positive
[2] = ion type: [M+H], ion source: ESI, ion mode: Positive
[3] = ion type: [M+Na], ion source: ESI, ion mode: Positive
[4] = ion type: [M-H], ion source: ESI, ion mode: Negative
[5] = ion source: APCI, ion mode: Positive, ion type: [M]+ (permanent cation)
[6] = ion source: ESI, ion mode: Positive, ion type: [M]+ (permanent cation)
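Also: chemical standards at 10 µM analysed by drift tube IMS-QTOF MS in about 3.95 torr nitrogen, mean of duplicate injections differing ≤1%, mass error below 10 ppm.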

CCc1c(C(=O)NN2CCCCC2)nn(-c2ccc(Cl)cc2Cl)c1-c1ccc(Br)cc1 [Surinabant]
collision cross section in nitrogen [1]: 224.8 Å² | collision cross section in nitrogen [2]: 224.1 Å² | collision cross section in nitrogen [3]: 232.1 Å² | collision cross section in nitrogen [4]: 226.6 Å²

CCCCC1(COC(=O)CCC(=O)O)C(=O)N(c2ccccc2)N(c2ccccc2)C1=O [Suxibuzone]
collision cross section in nitrogen [1]: 201.3 Å² | collision cross section in nitrogen [2]: 200.8 Å² | collision cross section in nitrogen [3]: 204.5 Å²

COC(=O)Nc1ccc(Cl)c(Cl)c1 [Swep]
collision cross section in nitrogen [4]: 140.9 Å²

Nc1c2c(nc3ccccc13)CCCC2 [Tacrine]
collision cross section in nitrogen [2]: 142.7 Å² | collision cross section in nitrogen [4]: 145.4 Å²

C[C@]1(Cn2ccnn2)[C@H](C(=O)O)N2C(=O)C[C@H]2S1(=O)=O [Tazobactam sodium]
collision cross section in nitrogen [2]: 161.8 Å² | collision cross section in nitrogen [4]: 157.7 Å²

CC(C)(C)C(O)(CCc1ccc(Cl)cc1)Cn1cncn1 (centres undefined) [Tebuconazole]
collision cross section in nitrogen [1]: 167.5 Å² | collision cross section in nitrogen [2]: 166.8 Å² | collision cross section in nitrogen [3]: 172.5 Å²

CCc1ccc(C(=O)NN(C(=O)c2cc(C)cc(C)c2)C(C)(C)C)cc1 [Tebufenozide]
collision cross section in nitrogen [3]: 201.3 Å² | collision cross section in nitrogen [4]: 193.6 Å²

CCc1nn(C)c(C(=O)NCc2ccc(C(C)(C)C)cc2)c1Cl [Tebufenpyrad]
collision cross section in nitrogen [1]: 193.9 Å² | collision cross section in nitrogen [2]: 193 Å² | collision cross section in nitrogen [3]: 193.2 Å² | collision cross section in nitrogen [4]: 194 Å²

CCOP(=S)(Oc1cnc(C(C)(C)C)nc1)OC(C)C (centres undefined) [Tebupirimfos]
collision cross section in nitrogen [1]: 177.4 Å² | collision cross section in nitrogen [2]: 177.4 Å²

CNC(=O)N(C)c1nnc(C(C)(C)C)s1 [Tebuthiuron]
collision cross section in nitrogen [1]: 150.4 Å² | collision cross section in nitrogen [2]: 150.5 Å² | collision cross section in nitrogen [3]: 162.9 Å²

O=C(NC(=O)c1c(F)cccc1F)Nc1cc(Cl)c(F)c(Cl)c1F [Teflubenzuron]
collision cross section in nitrogen [4]: 178.7 Å²

CC1CN(c2cc3c(cc2F)c(=O)c(C(=O)O)cn3-c2ccc(F)cc2F)CCN1 (centres undefined) [Temafloxacin]
collision cross section in nitrogen [2]: 193 Å² | collision cross section in nitrogen [3]: 211.3 Å² | collision cross section in nitrogen [4]: 209.4 Å²

CS(=O)(=O)c1ccc(C(=O)C2C(=O)CCCC2=O)c(Cl)c1COCC(F)(F)F [Tembotrione]
collision cross section in nitrogen [2]: 189.3 Å² | collision cross section in nitrogen [3]: 185.1 Å² | collision cross section in nitrogen [4]: 188.5 Å²

COP(=S)(OC)Oc1ccc(Sc2ccc(OP(=S)(OC)OC)cc2)cc1 [Temephos]
collision cross section in nitrogen [1]: 189.4 Å² | collision cross section in nitrogen [2]: 189.5 Å² | collision cross section in nitrogen [3]: 196.3 Å²

CCC(=NOC/C=C/Cl)C1=C(O)CC(C2CCOCC2)CC1=O (centres undefined) [Tepraloxydim]
collision cross section in nitrogen [2]: 185.8 Å² | collision cross section in nitrogen [3]: 191.1 Å² | collision cross section in nitrogen [4]: 181.1 Å²

Cc1[nH]c(=O)n(C(C)(C)C)c(=O)c1Cl [Terbacil]
collision cross section in nitrogen [4]: 144.9 Å²

CNC(=O)Oc1c(C(C)(C)C)cc(C)cc1C(C)(C)C [Terbucarb]
collision cross section in nitrogen [3]: 176.8 Å²

CCOP(=S)(OCC)SCS(=O)(=O)C(C)(C)C [Terbufos sulfone]
collision cross section in nitrogen [3]: 171.3 Å²

CCNc1nc(NC(C)(C)C)nc(OC)n1 [Terbumeton]
collision cross section in nitrogen [1]: 154.8 Å² | collision cross section in nitrogen [2]: 154.9 Å² | collision cross section in nitrogen [3]: 172.2 Å²

CCNc1nc(NC(C)(C)C)nc(SC)n1 [Terbutryn]
collision cross section in nitrogen [1]: 159.9 Å² | collision cross section in nitrogen [2]: 159.4 Å²

CCNc1nc(Cl)nc(NC(C)(C)C)n1 [Terbutylazine]
collision cross section in nitrogen [1]: 153.8 Å² | collision cross section in nitrogen [2]: 153.8 Å²

O=C(O)c1ccc(C(=O)O)cc1 [Terephthalic acid]
collision cross section in nitrogen [4]: 134 Å²

CC(c1cc(C(C)(C)C)cc(C(C)(C)C)c1O)c1cc(C(C)(C)C)cc(C(C)(C)C)c1O [Tetrabutyl ethylidenebisphenol]
collision cross section in nitrogen [4]: 224.4 Å²

CCCC[N+](CCCC)(CCCC)CCCC [Tetrabutylammonium bromide]
collision cross section in nitrogen [5]: 167.2 Å² | collision cross section in nitrogen [6]: 168 Å²

CCCC[P+](CCCC)(CCCC)CCCC [Tetrabutylphosphonium chloride]
collision cross section in nitrogen [5]: 172.4 Å²

O=C(O)Cc1cc(I)c(Oc2cc(I)c(O)c(I)c2)c(I)c1 [Tetrac]
collision cross section in nitrogen [4]: 203.1 Å²

Oc1c(O)c(Cl)c(Cl)c(Cl)c1Cl [Tetrachlorocatechol]
collision cross section in nitrogen [4]: 135.1 Å²

O=C1OC(=O)c2c(Cl)c(Cl)c(Cl)c(Cl)c21 [Tetrachlorophthalic anhydride]
collision cross section in nitrogen [4]: 158.1 Å²

FC(F)C(F)(F)OCC(Cn1cncn1)c1ccc(Cl)cc1Cl (centres undefined) [Tetraconazole]
collision cross section in nitrogen [1]: 177.6 Å² | collision cross section in nitrogen [2]: 176.6 Å²

CCCCCCCCCCCCCC(=O)O [Tetradecanoic acid]
collision cross section in nitrogen [4]: 161.8 Å²

CCCCCCCCCCCCCC[n+]1ccccc1 [Tetradecylpyridinium bromide]
collision cross section in nitrogen [5]: 185.4 Å² | collision cross section in nitrogen [6]: 185.9 Å²

CCCCCCCCCCCCCC[N+](C)(C)C [Tetradonium bromide]
collision cross section in nitrogen [5]: 185.1 Å² | collision cross section in nitrogen [6]: 185.7 Å²
